Experiment [1] relates to CLK2. The settings on record: human protein kinase; ref 17 (SM08502), 19 (T3), 20-21 (CX-4945), 24 (DB18); cited from earlier work.
Experiment [2] relates to DYRK1A. The settings on record: human protein kinase; ref 17 (SM08502), 19 (T3), 20-21 (CX-4945), 24 (DB18); cited from earlier work.
The subject of experiment [3] is DYRK1B. Also on record: method as in earlier work. Particulars: human protein kinase; ref 17 (SM08502), 19 (T3); cited from earlier work.
The subject of experiment [4] is CLK1. Particulars: human protein kinase; ref 17 (SM08502), 19 (T3), 20-21 (CX-4945), 24 (DB18); cited from earlier work.
The subject of experiment [5] is CLK3. The settings on record: human protein kinase; ref 17 (SM08502), 19 (T3), 20-21 (CX-4945), 24 (DB18); cited from earlier work.
The subject of experiment [6] is CLK4. The settings on record: human protein kinase; ref 17 (SM08502), 20-21 (CX-4945), 24 (DB18); cited from earlier work.
In experiment [7] the test system is DYRK2. Also on record: method as in PMID 31560935. Particulars: human protein kinase; cited from earlier work.
Experiment [8] addresses T1, Mm_CLK4 (Mus musculus, UniProt O35493). Particulars: data taken from ref 23-24; cited from earlier work.
In experiment [9] the target is T2, Rn_DYRK1A (Rattus norvegicus, UniProt Q63470). The settings on record: data taken from ref 23-24; cited from earlier work.
Experiment [10] has as its target CLK4. Also on record: method as in PMID 29769258. Particulars: human protein kinase; cited from earlier work.
Experiment [11] has as its target CLK2. Further details: method as in PMID 29769258. The settings on record: human protein kinase; cited from earlier work.
The target of experiment [12] is DYRK2. Further details: method as in PMID 29769258. Particulars: human protein kinase; cited from earlier work.
Experiment [13] addresses DYRK1B. Further details: method as in PMID 29769258. Particulars: human protein kinase; cited from earlier work.
In experiment [14] the target is CLK3. Also on record: method as in PMID 29769258. Particulars: human protein kinase; cited from earlier work.
Experiment [15] addresses CLK1. Also on record: method as in PMID 29769258. The settings on record: human protein kinase; cited from earlier work.
The target in experiment [16] is DYRK1A. Also on record: method as in PMID 29769258. Particulars: human protein kinase; cited from earlier work.
For another experiment, the target named is T3, Hs_HASPIN (Homo sapiens, UniProt Q8TF76).
T3 sequence (Q8TF76 1-798): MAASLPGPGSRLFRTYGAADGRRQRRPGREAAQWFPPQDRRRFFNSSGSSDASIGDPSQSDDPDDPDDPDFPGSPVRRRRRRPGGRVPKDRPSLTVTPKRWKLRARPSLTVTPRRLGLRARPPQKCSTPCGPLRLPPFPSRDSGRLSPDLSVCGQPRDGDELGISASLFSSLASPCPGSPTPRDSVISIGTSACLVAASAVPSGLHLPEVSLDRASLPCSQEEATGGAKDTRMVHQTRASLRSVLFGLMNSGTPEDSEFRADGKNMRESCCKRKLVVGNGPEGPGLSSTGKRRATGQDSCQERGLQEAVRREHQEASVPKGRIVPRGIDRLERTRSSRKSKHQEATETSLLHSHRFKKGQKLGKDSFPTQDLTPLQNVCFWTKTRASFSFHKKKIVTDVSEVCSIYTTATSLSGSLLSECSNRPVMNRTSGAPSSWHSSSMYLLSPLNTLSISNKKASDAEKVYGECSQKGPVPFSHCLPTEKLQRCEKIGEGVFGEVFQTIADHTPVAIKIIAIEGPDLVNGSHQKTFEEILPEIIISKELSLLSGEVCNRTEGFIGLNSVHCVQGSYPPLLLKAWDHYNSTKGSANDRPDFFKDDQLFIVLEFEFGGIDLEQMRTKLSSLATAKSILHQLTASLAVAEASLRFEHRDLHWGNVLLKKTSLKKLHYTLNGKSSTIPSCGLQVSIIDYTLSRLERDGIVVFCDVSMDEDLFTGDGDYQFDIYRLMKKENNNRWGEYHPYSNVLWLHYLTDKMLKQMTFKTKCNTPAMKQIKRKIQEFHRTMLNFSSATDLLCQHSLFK
The experiment is described as follows: primary screening, short panel of mammalian kinases. Particulars: ATP 10 µM, means, n = 2, read-out: Residual kinase activity Hs_HASPIN. It counts as biochemical. The source says:
(§1) Our molecules have been submitted first to a primary screening against a panel of eight disease-related kinases: five members of the CMGC (for CDK, MAPK, GSK3, and CLK) group (CDK5/p25, CDK9/CyclinT, GSK3β, CLK1 and DYRK1A), one CAMK (calmodulin/calcium regulated kinase PIM1), one CK1 (the casein kinase CK1ε), and haspin as a […] kinase.
(§2) Figure 4 Primary evaluation of the inhibition of the new quinazolines against a short panel of mammalian kinases. Residual kinase activities are expressed in % of maximal activity, i.e., measured in the absence of inhibitor but with an equivalent dose of DMSO (solvent of the tested compounds). ATP concentration used in the kinase assays was 10 µM (values are means, n = 2). Kinases are from human origin (Homo sapiens) except CLK1 (from Mus musculus) and DYRK1A (from Rattus norvegicus). […]

Experiment [17] has as its target T2, Rn_DYRK1A. The description is as above. The settings on record: ATP 10 µM, means, n = 2, read-out: Residual kinase activity Rn_DYRK1A. It counts as biochemical.
Excerpt: as §1, §2

A further experiment addresses Hs_CDK5/p25 (Homo sapiens, UniProt Q00535). The experiment is described as above. The settings on record: ATP 10 µM, means, n = 2, read-out: Residual kinase activity Hs_CDK5/p25. It counts as biochemical.
Excerpt: as §1, §2

The target of the next experiment is Hs_CK1ε (Homo sapiens, UniProt P49674). The experiment is described as above. Particulars: ATP 10 µM, means, n = 2, read-out: Residual kinase activity Hs_CK1ε. It counts as biochemical.
Excerpt: as §1, §2

The target in the next experiment is Hs_GSK3β (Homo sapiens, UniProt P49841). Described as above. It counts as biochemical. The settings on record: ATP 10 µM, means, n = 2, read-out: Residual kinase activity Hs_GSK3β.
Excerpt: as §1, §2

The target of experiment [18] is T4, Mm_CLK1 (Mus musculus, UniProt P22518). The experiment is described as above. The format is biochemical.
Excerpt: as §1, §2

The next experiment has as its target Hs_CDK9/CyclinT (Homo sapiens, UniProt P50750). The experiment is described as above. It counts as biochemical. Particulars: ATP 10 µM, means, n = 2, read-out: Residual kinase activity Hs_CDK9/CyclinT.
Excerpt: as §1, §2

A further experiment addresses Hs_PIM1 (Homo sapiens, UniProt P11309). The description is as above. The format is biochemical. The settings on record: ATP 10 µM, means, n = 2, read-out: Residual kinase activity Hs_PIM1.
Excerpt: as §1, §2

In a further experiment the target is Mm_CLK3 (Mus musculus, UniProt O35492). As to the kind of experiment: radiometric γ33P-ATP kinase assay (Eurofins). The format is biochemical. Particulars: 15 µM ATP; dose-response, points in duplicate. Here is the method:
(§3) The results are reported in Table 2 and in Supporting Information File 1.
(§4) 2- Kinase inhibition studies
(§5) Kinase enzymatic activities were assayed using both luminescent ADP detection assay
(§6) (ADP-GloTM assay kit, Promega, Madison, WI) or radiometric kinase assay. These
(§7) assays were performed using the protocols described in our previous publication. […]
(§8) 1.Brahmaiah, D.; Kanaka Durga Bhavani, A.; Aparna, P.; Sampath Kumar, N.; Solhi,
(§9) H.; Le Guevel, R.; Baratte, B.; Ruchaud, S.; Bach, S.; Singh Jadav, S.; Raji Reddy, C.;
(§10) Roisnel, T.; Mosset, P.; Levoin, N.; Grée, R. Bioorg.
R.; Baratte, B.; Robert, T.; Ruchaud, S.; Bach, S.; Jadav, S. S.; Reddy, C. R.; Mosset,
P.; Gouault, N.; Levoin, N.; Grée, R. Molecules 2022, 27, 6149. […]

In experiment [19] the target is T1, Mm_CLK4. As to the kind of experiment: radiometric γ33P-ATP kinase assay (Eurofins). It counts as biochemical. How it is done: as §3, §4, §5, §6, §7, §8, §9, §10
(§11) R.; Baratte, B.; Robert, T.; Ruchaud, S.; Bach, S.; Jadav, S. S.; Reddy, C. […]

In experiment [20] the target is T4, Mm_CLK1. As to the kind of experiment: radiometric γ33P-ATP kinase assay (Eurofins). It counts as biochemical. Here is the method: as §3, §4, §5, §6, §7, §8, §9, §10, §11
The target of another experiment is Mm_CLK2 (Mus musculus, UniProt O35491). As to the kind of experiment: radiometric γ33P-ATP kinase assay (Eurofins). It counts as biochemical. Here is the method: as §3, §4, §5, §6, §7, §8, §9, §10, §11
Where [21] appears, read: 15 µM ATP, dose-response, points in duplicate.

Structures are written as SMILES. Several values for one entry are separate records, joined by “and”; a condition that tells them apart may be missing. Equal values may be shown once. Read-outs that look alike come from different tables or passages of the source. Where only a bound is given, the exact number is not on record here.

T1 sequence (O35493 whole entry): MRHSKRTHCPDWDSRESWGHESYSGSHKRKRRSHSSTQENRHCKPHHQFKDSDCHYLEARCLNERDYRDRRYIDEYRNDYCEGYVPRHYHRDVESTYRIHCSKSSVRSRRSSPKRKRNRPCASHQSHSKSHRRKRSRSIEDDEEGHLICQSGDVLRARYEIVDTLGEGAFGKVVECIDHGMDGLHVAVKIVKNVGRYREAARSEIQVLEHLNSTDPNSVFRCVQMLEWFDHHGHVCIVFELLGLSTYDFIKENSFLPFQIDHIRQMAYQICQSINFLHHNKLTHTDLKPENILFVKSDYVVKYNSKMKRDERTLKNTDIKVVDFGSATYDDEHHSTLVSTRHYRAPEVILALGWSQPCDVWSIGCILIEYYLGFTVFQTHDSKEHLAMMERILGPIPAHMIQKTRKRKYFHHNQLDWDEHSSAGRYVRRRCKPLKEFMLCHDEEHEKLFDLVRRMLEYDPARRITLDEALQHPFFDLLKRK
T4 sequence (P22518 whole entry): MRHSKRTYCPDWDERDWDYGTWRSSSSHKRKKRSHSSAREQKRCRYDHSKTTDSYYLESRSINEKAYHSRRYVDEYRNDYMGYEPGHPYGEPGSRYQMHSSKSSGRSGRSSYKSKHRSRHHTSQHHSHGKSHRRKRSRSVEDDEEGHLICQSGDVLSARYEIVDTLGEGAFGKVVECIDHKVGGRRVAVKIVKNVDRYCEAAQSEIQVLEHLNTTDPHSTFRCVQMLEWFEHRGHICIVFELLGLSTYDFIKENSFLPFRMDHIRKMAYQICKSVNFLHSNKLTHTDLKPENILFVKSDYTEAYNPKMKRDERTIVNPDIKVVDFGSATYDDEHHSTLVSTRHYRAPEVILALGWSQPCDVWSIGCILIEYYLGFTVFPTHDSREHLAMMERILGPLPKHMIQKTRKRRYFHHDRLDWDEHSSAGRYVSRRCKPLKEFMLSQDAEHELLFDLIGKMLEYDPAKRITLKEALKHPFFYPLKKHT
Chain of Hs_CDK9/CyclinT (P50750 whole entry): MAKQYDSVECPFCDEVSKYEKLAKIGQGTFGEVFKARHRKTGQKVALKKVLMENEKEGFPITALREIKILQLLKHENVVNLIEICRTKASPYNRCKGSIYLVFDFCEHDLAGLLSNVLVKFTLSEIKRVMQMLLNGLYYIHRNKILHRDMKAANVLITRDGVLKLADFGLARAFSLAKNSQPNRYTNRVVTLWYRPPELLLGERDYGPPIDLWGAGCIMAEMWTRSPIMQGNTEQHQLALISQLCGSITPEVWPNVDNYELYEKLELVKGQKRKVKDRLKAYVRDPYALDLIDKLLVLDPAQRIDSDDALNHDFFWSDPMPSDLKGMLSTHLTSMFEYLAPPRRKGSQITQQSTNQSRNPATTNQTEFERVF
Chain of Hs_CDK9/CyclinT (O60563 whole entry partner): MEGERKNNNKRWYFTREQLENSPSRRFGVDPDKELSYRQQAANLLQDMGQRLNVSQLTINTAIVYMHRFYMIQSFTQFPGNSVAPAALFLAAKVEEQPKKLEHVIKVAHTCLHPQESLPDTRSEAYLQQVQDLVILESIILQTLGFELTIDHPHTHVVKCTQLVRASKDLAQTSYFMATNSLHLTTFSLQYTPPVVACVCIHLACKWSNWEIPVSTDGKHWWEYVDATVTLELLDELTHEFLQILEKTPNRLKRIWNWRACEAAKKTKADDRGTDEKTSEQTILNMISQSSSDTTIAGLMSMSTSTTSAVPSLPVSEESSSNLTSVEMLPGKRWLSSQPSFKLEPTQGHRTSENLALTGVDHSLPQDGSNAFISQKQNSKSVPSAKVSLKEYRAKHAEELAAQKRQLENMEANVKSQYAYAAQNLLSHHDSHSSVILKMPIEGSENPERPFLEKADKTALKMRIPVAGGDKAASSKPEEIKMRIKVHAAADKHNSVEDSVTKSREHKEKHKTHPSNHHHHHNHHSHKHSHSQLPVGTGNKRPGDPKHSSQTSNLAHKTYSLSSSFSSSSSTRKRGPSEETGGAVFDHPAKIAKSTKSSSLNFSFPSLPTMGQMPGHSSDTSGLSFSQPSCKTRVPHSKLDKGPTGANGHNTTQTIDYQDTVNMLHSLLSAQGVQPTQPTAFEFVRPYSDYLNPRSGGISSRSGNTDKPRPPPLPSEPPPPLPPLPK
Chain of Hs_CK1ε (P49674 whole entry): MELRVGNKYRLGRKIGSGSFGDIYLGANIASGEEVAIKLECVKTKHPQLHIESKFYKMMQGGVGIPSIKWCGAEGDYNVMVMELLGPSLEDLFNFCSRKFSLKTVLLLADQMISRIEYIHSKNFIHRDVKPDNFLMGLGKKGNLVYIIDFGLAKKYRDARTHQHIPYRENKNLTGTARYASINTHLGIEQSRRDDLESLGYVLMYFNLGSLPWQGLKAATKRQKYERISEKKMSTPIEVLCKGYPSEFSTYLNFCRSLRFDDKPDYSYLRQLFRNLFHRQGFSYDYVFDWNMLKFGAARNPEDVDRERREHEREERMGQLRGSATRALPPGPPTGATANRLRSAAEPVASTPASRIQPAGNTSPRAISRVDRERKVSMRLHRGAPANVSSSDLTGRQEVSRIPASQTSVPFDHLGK
Chain of Hs_PIM1 (P11309 whole entry): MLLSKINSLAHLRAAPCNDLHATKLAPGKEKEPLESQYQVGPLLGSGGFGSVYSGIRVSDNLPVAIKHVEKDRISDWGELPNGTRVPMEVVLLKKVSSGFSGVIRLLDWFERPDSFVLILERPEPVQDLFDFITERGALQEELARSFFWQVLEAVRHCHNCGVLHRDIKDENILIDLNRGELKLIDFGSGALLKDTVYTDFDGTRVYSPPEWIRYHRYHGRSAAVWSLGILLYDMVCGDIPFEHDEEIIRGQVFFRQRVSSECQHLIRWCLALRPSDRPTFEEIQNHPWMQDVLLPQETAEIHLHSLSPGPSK
Chain of Hs_CDK5/p25 (Q00535 whole entry): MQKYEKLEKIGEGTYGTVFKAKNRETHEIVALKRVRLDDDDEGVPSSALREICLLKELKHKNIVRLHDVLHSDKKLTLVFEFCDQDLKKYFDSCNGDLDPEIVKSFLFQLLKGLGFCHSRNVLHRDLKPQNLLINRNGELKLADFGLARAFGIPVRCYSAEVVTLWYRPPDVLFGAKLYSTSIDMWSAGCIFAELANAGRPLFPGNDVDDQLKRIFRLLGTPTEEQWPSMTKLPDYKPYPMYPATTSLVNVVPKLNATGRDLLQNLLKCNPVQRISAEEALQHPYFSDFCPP
Chain of Hs_CDK5/p25 (Q15078 99-307 partner limits assumed): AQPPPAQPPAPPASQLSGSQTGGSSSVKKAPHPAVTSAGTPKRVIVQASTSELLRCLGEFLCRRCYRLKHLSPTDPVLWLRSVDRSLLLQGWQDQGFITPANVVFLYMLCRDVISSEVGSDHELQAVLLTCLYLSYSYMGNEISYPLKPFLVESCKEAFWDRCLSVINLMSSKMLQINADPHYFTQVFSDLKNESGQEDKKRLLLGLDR
Chain of Mm_CLK3 (O35492 whole entry): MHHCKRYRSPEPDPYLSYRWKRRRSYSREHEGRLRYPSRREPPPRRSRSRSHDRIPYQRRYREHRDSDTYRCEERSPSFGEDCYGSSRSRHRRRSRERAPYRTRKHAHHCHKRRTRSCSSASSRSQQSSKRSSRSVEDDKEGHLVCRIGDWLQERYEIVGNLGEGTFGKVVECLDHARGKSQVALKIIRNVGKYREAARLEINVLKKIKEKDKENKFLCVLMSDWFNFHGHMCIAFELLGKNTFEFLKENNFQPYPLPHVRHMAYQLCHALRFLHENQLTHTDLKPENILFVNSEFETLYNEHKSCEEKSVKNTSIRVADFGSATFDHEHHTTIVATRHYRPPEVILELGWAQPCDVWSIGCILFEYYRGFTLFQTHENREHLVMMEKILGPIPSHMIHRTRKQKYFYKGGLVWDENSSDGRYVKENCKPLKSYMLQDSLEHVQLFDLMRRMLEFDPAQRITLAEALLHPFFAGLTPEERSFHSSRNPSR
Chain of Hs_GSK3β (P49841 whole entry): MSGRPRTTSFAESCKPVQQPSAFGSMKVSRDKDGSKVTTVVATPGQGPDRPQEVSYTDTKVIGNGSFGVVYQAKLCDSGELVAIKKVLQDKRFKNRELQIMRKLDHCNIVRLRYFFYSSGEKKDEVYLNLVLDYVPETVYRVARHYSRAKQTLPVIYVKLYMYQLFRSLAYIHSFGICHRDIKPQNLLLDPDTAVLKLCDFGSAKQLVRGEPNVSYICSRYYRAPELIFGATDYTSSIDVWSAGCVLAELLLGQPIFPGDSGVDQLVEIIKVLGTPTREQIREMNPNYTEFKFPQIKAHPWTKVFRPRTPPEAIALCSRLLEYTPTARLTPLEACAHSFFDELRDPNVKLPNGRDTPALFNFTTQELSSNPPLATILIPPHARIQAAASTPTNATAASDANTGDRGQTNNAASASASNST
Chain of Mm_CLK2 (O35491 whole entry): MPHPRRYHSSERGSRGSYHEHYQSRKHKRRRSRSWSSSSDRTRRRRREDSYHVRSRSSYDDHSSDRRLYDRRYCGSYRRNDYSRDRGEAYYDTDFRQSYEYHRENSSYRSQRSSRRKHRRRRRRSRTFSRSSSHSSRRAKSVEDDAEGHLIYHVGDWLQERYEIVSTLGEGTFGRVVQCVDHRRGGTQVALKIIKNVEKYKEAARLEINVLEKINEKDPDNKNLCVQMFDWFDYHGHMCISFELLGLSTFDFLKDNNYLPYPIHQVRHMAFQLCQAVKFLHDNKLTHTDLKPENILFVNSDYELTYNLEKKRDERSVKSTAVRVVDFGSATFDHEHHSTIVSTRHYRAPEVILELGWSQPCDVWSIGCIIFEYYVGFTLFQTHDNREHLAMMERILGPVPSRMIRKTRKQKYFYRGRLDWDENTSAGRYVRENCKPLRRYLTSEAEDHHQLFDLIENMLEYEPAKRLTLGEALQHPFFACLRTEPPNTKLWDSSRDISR

Usually IC50 stands for the concentration needed to halve the response being measured. In the case of `CN1CCN(C(=O)C(C)(C)c2ccc(C(=O)Nc3cn4cc(-c5ccncc5)ccc4n3)cc2)CC1` [Compound T3], the IC50 in the experiment with CLK2 [1] was 15 nM; in the experiment with DYRK1A [2], 260 nM; in the experiment on DYRK1B [3], 230 nM; in the experiment on CLK1 [4], 0.67 nM; with CLK3 [5], 110 nM.

`CN1CCN(c2cc(C(=O)Nc3cc4cc(-c5cnn(C)c5)ccc4cn3)ccn2)CC1` [SM08502]: the IC50 was […] in the experiment on CLK2 [1]; […] with DYRK1A [2]; […] in the experiment on CLK4 [6]; […] in the experiment on DYRK1B [3]; 8 nM in the experiment on CLK1 [4]; 22 nM with CLK3 [5]. Also, in the experiment on DYRK2 [7], the IC50 was […].

For `Cc1ccc(-n2cc(COc3cccc4cnc(Nc5cccc(Cl)c5)nc34)nn2)c([N+](=O)[O-])c1` [DB18], the values for the IC50 on Mm_CLK4 [8] and at Rn_DYRK1A [9] were 20 nM and above 100000 nM, respectively.

As to `O=C(O)c1ccc2c(c1)nc(Nc1cccc(Cl)c1)c1ccncc12` [CX-4945], the IC50 in the experiment with CLK2 [1] is 2.9 nM; with DYRK1A [2], […]; in the experiment on CLK4 [6], 23 nM; in the experiment on CLK1 [4] it was 3.3 nM; in the experiment on CLK3 [5] it was 67 nM.

The term Kd denotes the equilibrium constant for the complex coming apart. With `CNc1nc(NCc2cnccn2)c2c(-c3ccc4ncccc4c3)c[nH]c2n1` [Compound T-025], the dissociation constant (Kd) was 0.61 nM on CLK4 [10]; 0.096 nM on CLK2 [11]; 32 nM on DYRK2 [12]; 1.5 nM at DYRK1B [13]; 6.5 nM on CLK3 [14]; 4.8 nM on CLK1 [15]. Further, on DYRK1A [16], the Kd is 0.074 nM.

As to `Cc1ccc(-n2cc(COc3cccc4cnc(Nc5cccc(-c6ccc(C(=O)O)cc6)c5)nc34)nn2)c([N+](=O)[O-])c1` [Compound 10a], the remaining activity at 1 µM is 93% at Hs_HASPIN (compound 1 μM); at least 100% on Rn_DYRK1A [17] (compound 1 μM); 61% at Hs_CDK5/p25 (compound 1 μM); 93% at Hs_CK1ε (compound 1 μM); 82% at Hs_GSK3β (compound 1 μM); 15% on Mm_CLK1 [18] (compound 1 μM, ATP 10 µM, means, n = 2, read-out: Residual kinase activity Mm_CLK1). For the same compound, the remaining activity at 1 µM on Hs_CDK9/CyclinT (compound 1 μM) is 84%; at Hs_PIM1 (compound 1 μM), 80%. The remaining activity at 10 µM came out at 92% on Hs_HASPIN (compound 10 μM); 84% on Rn_DYRK1A [17] (compound 10 μM); 70% on Hs_CDK5/p25 (compound 10 μM); 84% on Hs_CK1ε (compound 10 μM); 32% on Hs_GSK3β (compound 10 μM); 0% on Mm_CLK1 [18] (compound 10 μM, ATP 10 µM, means, n = 2, read-out: Residual kinase activity Mm_CLK1). Moreover, the results for the remaining activity at 10 µM at Hs_CDK9/CyclinT (compound 10 μM) and on Hs_PIM1 (compound 10 μM) were 38% and at least 100%, respectively. Besides, the “activity against CLK1 in primary screening” value at Mm_CLK1 [18] (1 and 10 µM) was “significant activity against CLK1”. The IC50 at Mm_CLK3 is 3700 nM and 3730 nM; against Mm_CLK4 [19] (setting [21]), 762 nM; at Mm_CLK1 [20] (setting [21]), 891 nM; against Mm_CLK2 (setting [21]), 844 nM. On Mm_CLK4 [19] (ratio of IC50 values), the Mm_CLK3/Mm_CLK4 is recorded as 4.90. For the same compound, the Mm_CLK3/Mm_CLK1 at Mm_CLK1 [20] (ratio of IC50 values) was 4.18. Besides, at Mm_CLK2 (ratio of IC50 values), the Mm_CLK3/Mm_CLK2 turned out to be 4.42.

(Values after article PMC12557437, “Research towards selective inhibition of the CLK3 kinase” (Beilstein Journal of Organic Chemistry, 2025).)
